Patent publication US20040033517A1, “Compositions and methods relating to endothelial cell signaling using the protease activated receptor (PAR1)” (priority 2002, published 2004)
Where two headings read alike, the source gives them in different places. Ends that are not written are not given here.

Tested on: human umbilical vein endothelial cells HUVEC-C
Assay type: cell-based
Text: Microarray Analysis. […] Total RNA was isolated followed by reverse transcription. Purified double stranded cDNA was in vitro transcribed in the presence of biotinylated dUTP and dCTP, fragmented cRNA was hybridized to the HG-U95Av2 array (Affymetrix, Santa Clara, Calif.), followed by staining with streptavidin-phycoerythrin. Arrays were scanned and analyzed using GeneChip3.1 software. […] An average fold-induction for the three independent experiments was obtained by calculating the means of the logarithm of the individual fold-increases for each agonist.

[1] = HUVEC-C, 90 min, genes represented in FIG. 2 A-C
[2] = HUVEC-C, 90 min, higher variability, PAR1 enhanced (<1.3 fold with PAR2 agonist)
[3] = HUVEC-C, 90 min, higher variability, PAR2 enhanced (<1.3 fold with PAR1 agonist)
[4] = HUVEC-C, 90 min, higher variability, genes not induced by APC (<1.3 fold with APC)

Substance: SLIGRL [PAR2, SLIGRL]
- Average fold induction, BIRC3 U45878 HUMAN INHIBITOR OF APOPTOSIS PROTEIN (IAP) 1: 1.41 fold
- Average fold induction, NAB1 AF045451 NGFIA-BINDING PROTEIN: 1.38 fold
- Average Induction, A1288757 qm11h01.x1 Homo sapiens cDNA [1]: 2.3 fold
- Average Induction, A1670788 tz10c02.x1 Homo sapiens cDNA [1]: 1.4 fold
- Average Induction, A1985272 ws06b05.x1 Homo sapiens cDNA [1]: 1.4 fold
- Average Induction, A8022718 Homo sapiens m.RNA for DEPP (decidual protein induced by progesterone) [1]: 2.0 fold
- Average Induction, AB004066 Homo sapiens mRNA for DEC1 [1]: 1.3 fold
- Average Induction, AB014569 Homo sapiens mRNA for K1AA0669 protein [1]: 2.0 fold
- Average Induction, AF017786 Homo sapiens phosphatidic acid phosphohydrolase homolog (Dri42) [1]: 1.6 fold
- Average Induction, AF022375 Homo sapiens vascular endothelial growth factor mRNA [1]: 1.3 fold
- Average Induction, AF039843 Homo sapiens Sprouty 2 (SPRY2) mRNA [1]: 1.8 fold
- Average Induction, AF045451 Homo sapiens transcriptional regulatory protein p54 [1]: 1.4 fold
- Average Induction, AF050110 Homo sapiens TGFb inducible early protein and early growth response protein alpha genes [1]: 1.4 fold
- Average Induction, AF054182 Homo sapiens mitochondrial processing peptidase beta-subunit mRNA [1]: 1.3 fold
- Average Induction, AF068197 Homo sapiens BCE-1 mRNA [1]: 1.8 fold
- Average Induction, AF078077 Homo sapiens growth arrest and DNA-damage-inducible protein GADD45beta [1]: 1.3 fold
- Average Induction, AJ005821 Homo sapiens mRNA for X-like 1 protein [1]: 1.6 fold
- Average Induction, AL023584 Human DNA sequence from clone 67K17 on chromosome 6q24.1-24.3. [1]: 2.0 fold
- Average Induction, AL031432 Human DNA sequence from clone 465N24 on chromosome 1p35.1-36.13. [1]: 2.6 fold
- Average Induction, AL050078 Homo sapiens mRNA; cDNA DKFZp566G0746 [1]: 1.6 fold
- Average Induction, AL096858 Novel human gene mapping to chomosome 1 [1]: 1.5 fold
- Average Induction, Cluster Incl M22489 Human bone morphogenetic protein 2A (BMP-2A) [1]: 2.9 fold
- Average Induction, Cluster Incl U12767 Human mitogen induced nuclear orphan receptor (MINOR) [1]: 3.4 fold
- Average Induction, D15050 Human mRNA for transcription factor AREB6 [1]: 1.7 fold
- Average Induction, D50917 Human mRNA for KIAA0127 gene [1]: 1.3 fold
- Average Induction, D78579 Homo sapiens mRNA for neuron derived orphan receptor [1]: 1.4 fold
- Average Induction, D86181 Homo sapiens DNA for galactocerebrosidase [1]: 1.5 fold
- Average Induction, Guanine Nucleotide Exchange Factor 2 [1]: 1.4 fold
- Average Induction, J02931 Human placental tissue factor (two forms) mRNA [1]: 2.7 fold
- Average Induction, J04076 Human early growth response 2 protein (EGR2) mRNA [1]: 2.0 fold
- Average Induction, J04111 Human c-jun proto oncogene (JUN) [1]: 1.5 fold
- Average Induction, L05072 Homo sapiens interferon regulatory factor 1 gene [1]: 2.0 fold
- Average Induction, L19871 Human activating transcription factor 3 (ATF3) [1]: 2.6 fold
- Average Induction, L43821 Homo sapiens enhancer of filamentation (HEF1) mRNA [1]: 1.2 fold
- Average Induction, M22489/FEATURE Human bone morphogenetic protein 2A (BMP-2A) [1]: 3.2 fold
- Average Induction, M26683 Human interferon gamma treatment inducible mRNA [1]: 1.0 fold
- Average Induction, M28211 Homo sapiens GTP-binding protein (RAB4) mRNA [1]: 2.7 fold
- Average Induction, M28225 Human JE gene encoding a monocyte secretory protein [= MCP-1] [1]: 1.1 fold
- Average Induction, M29039 Human transactivator (jun-B) gene [1]: 2.8 fold
- Average Induction, M30474 Human kidney gamma-glutamyl transpeptidase type II mRNA [1]: 2.1 fold
- Average Induction, M31516 Human decay-accelerating factor mRNA [1]: 1.9 fold
- Average Induction, M36820 Human cytokine (GRO-beta) mRNA [1]: 1.6 fold
- Average Induction, M59465 Human tumor necrosis factor alpha inducible protein A20 mRNA [1]: 1.3 fold
- Average Induction, M60278 Human heparin-binding EGF-like growth factor mRNA [1]: 3.9 fold
- Average Induction, M60721 Human homeobox gene [1]: 3.7 fold
- Average Induction, M69043 Homo sapiens MAD-3 mRNA encoding 1kB-like activity [1]: 1.4 fold
- Average Induction, M92843 H.sapiens zinc finger transcriptional regulator mRNA [1]: 3.4 fold
- Average Induction, S81439 EGR alpha=early growth response gene alpha [1]: 1.4 fold
- Average Induction, S81914 IEX-1=radiation-inducible immediate-early gene [1]: 1.2 fold
- Average Induction, U04636 Human cyclooxygenase-2 (hCox-2) gene [1]: 1.3 fold
- Average Induction, U07802 Human Tis1 1d gene [1]: 1.6 fold
- Average Induction, U08015 Human NF-ATc mRNA [1]: 2.0 fold
- Average Induction, U12767/FEATURE Human mitogen induced nuclear orphan receptor (MINOR) [1]: 3.3 fold
- Average Induction, U15932 Human dual-specificity protein phosphatase [1]: 3.3 fold
- Average Induction, U25997 Homo sapiens stanniocalcin precursor (STC) mRNA [1]: 1.4 fold
- Average Induction, U43142 Human vascular endothelial growth factor related protein VRP [1]: 1.9 fold
- Average Induction, U59863 Human TRAF-interacting protein I-TRAF mRNA [1]: 1.1 fold
- Average Induction, U75697 Human transcription regulator RPD3-2B mRNA [1]: 2.6 fold
- Average Induction, U79259 Human clone 23945 mRNA [1]: 1.7 fold
- Average Induction, U81607 Homo sapiens gravin mRNA [1]: 1.3 fold
- Average Induction, W27545 32c4 Homo sapiens cDNA [1]: 1.2 fold
- Average Induction, X51345 Human jun-B mRNA for JUN-B protein [1]: 1.8 fold
- Average Induction, X63741 H.sapiens pilot mRNA [1]: 3.0 fold
- Average Induction, X68277 H.sapiens CL 100 mRNA for protein tyrosine phosphatase [1]: 2.8 fold
- Average Induction, X75918 H.sapiens mRNA for NOT [1]: 3.3 fold
- Average Induction, X89066 H.sapiens mRNA for TRPC1 protein [1]: 2.2 fold
- Average Induction, X94216 H.sapiens mRNA for VEGF-C protein [1]: 2.1 fold
- Average Induction, Y00630 Human mRNA for Arg-Serpin (plasminogen activator-inhibitor 2, PAI-2) [1]: 1.7 fold
- Average Induction, Z25821 H.sapiens gene for mitochondrial dodecenoyl-CoA delta-isomerase [1]: 1.7 fold
- Average Induction, Z48054 H.sapiens mRNA for peroxisomal targeting signal 1 (SKL type) receptor [1]: 1.9 fold
- Average Induction, L13740 Human TR3 orphan receptor mRNA (HUVEC-C, 90 min, genes represented in FIG. 2 A-C, first probe set): 5.4 fold
- Average Induction, L13740 Human TR3 orphan receptor mRNA (HUVEC-C, 90 min, genes represented in FIG. 2 A-C, second probe set): 5.4 fold
- Average Induction, A1186701 qe82d12.x1 Homo sapiens cDNA [2]: 1.1 fold
- Average Induction, A1953789 wx69d10.x1 Homo sapiens cDNA [2]: 0.9 fold
- Average Induction, AF024710 Homo sapiens vascular endothelial growth factor (VEGF) [2]: 1.1 fold
- Average Induction, AL035297 H.sapiens gene from PAC 747L4 [2]: 1.0 fold
- Average Induction, M22299 Human T-plastin polypeptide mRNA [2]: 1.2 fold
- Average Induction, U35735 Human RACH1 (RACH1) mRNA [2]: 1.1 fold
- Average Induction, U87460 Human putative endothelin receptor type B-like protein mRNA [2]: 0.9 fold
- Average Induction, A1038821 ox96d03.x1 Homo sapiens cDNA [3]: 2.0 fold
- Average Induction, AC004475 Homo sapiens chromosome 19, cosmid F23858 [3]: 1.4 fold
- Average Induction, AL049354 Homo sapiens mRNA; cDNA DKFZp566E183 [3]: 1.3 fold
- Average Induction, L38696 Homo sapiens autoantigen p542 mRNA [3]: 1.3 fold
- Average Induction, U27655 Human RGP3 mRNA [3]: 1.5 fold
- Average Induction, U53831 Homo sapiens interferon regulatory factor 7B [3]: 1.5 fold
- Average Induction, U58334 Human Bcl2, p53 binding protein Bbp/53BP2 (BBP/53BP2) mRNA [3]: 1.5 fold
- Average Induction, U65093 Human msg1-related gene 1 (mrg1) mRNA [3]: 1.7 fold
- Average Induction, W26851 17b12 Homo sapiens cDNA [3]: 1.6 fold
- Average Induction, Y13115 Homo sapiens mRNA for serine/threonine protein kinase SAK [3]: 1.6 fold
- Average Induction, Z25821 H.sapiens gene for mitochondrial dodecenoyl-CoA delta-isomerase [3]: 1.7 fold
- Average Induction, AB028069 Homo sapiens mRNA for activator of S phase Kinase [4]: 2.0 fold
- Average Induction, D38537 Human mRNA for protoporphyrinogen oxidase [4]: 1.6 fold
- Average Induction, M83667 Human NF-IL6-beta protein [4]: 1.3 fold
- Average Induction, U78082 Human RNA polymerase transcriptional regulation mediator (h-MED6) mRNA [4]: 1.3 fold
- Average Induction, U85267 Homo sapiens down syndrome candidate region 1 (DSCR1) gene [4]: 2.0 fold
